# Results from patent US12115157B2, “3-phenoxyazetidin-1-yl-heteroaryl pyrrolidine derivatives and the use thereof as medicament” (Boehringer Ingelheim International GmbH, priority 2021, dated 2024).
# What was measured:
# [1] = tested on: primary human hepatocytes; experiment: In vitro metabolite profiling in primary human hepatocytes with or without proadifen; type: in vitro ADME; conditions: for % Parent of drug-related material: incubations in primary human hepatocytes, 1 μM test compound; for Contribution of amide hydrolysis to metabolism (incl. secondary metabolites): abundance of deacetylated metabolites relative to all metabolites
# Method: In vitro metabolite profiling to evaluate the involvement of non-CYP-enzyme-mediated metabolic pathways such as hydrolysis in addition to CYP-mediated pathways is based on the semiquantitative analysis of the formation of prototypic metabolites in incubations with liver microsomes (with and without beta-nicotinamide adenine dinucleotide phosphate, NADPH), primary human hepatocytes (with and without the pan-CYP inhibitor proadifen) and recombinant CYP enzymes.
# An additional measure to identify CYP-independent metabolic pathways is the use of the pan-CYP inhibitor proadifen in incubations of the test compound with human hepatocytes. In presence of proadifen, the CYP-related pathways are inhibited and metabolites would primarily be generated via non-CYP pathways.
# The involvement of non-CYP-enzymes in metabolic transformations of the test compound was further investigated using primary human hepatocytes in suspension in presence or absence of the pan-CYP inhibitor proadifen (50 μM final incubation concentration). After recovery from cryopreservation, human hepatocytes were incubated in Dulbecco's modified eagle medium supplemented with 3.5 μg glucagon/500 ml, 2.5 mg insulin/500 ml and 3.75 mg/500 ml hydrocortisone containing 5% (v/v) human serum.
# Following a 30 min preincubation in a cell culture incubator (37° C., 10% CO2) with or without 50 μM proadifen, test compound solution was spiked into the hepatocyte suspension to obtain a final cell density of 1.0*10^6 to 4.0*10^6 cells/ml (depending on the metabolic turnover rate of the compound observed with primary human hepatocytes), a final test compound concentration of 1 μM, and a final DMSO concentration of 0.05% (v/v).
# The cells were incubated for six hours (incubator, horizontal shaker) and samples were removed from the incubation after 0, 0.5, 1, 2, 4 or 6 hours, depending on the metabolic turnover rate. Samples were quenched with acetonitrile and pelleted by centrifugation. The supernatant was transferred to a 96-deepwell plate, evaporated under nitrogen, and resuspended prior to bioanalysis by liquid chromatography-high resolution mass spectrometry for identification of putative metabolites.
# The contribution of hydrolysis was calculated based on the abundance of the respective deacetylated metabolite(s) of the compounds of the present invention relative to all metabolites observed in incubations with human hepatocytes.
# hERG channel = hERG channel (Homo sapiens (Human), UniProt Q12809); experiment: hERG channel assay (whole-cell patch clamp); type: cell-based; conditions: HEK293 cells stably transfected with hERG cDNA
# From the text: hERG Channel inhibition of compounds of the present invention was investigated as follows:
# HEK (human embryonic kidney) 293 cells were stably transfected with hERG cDNA. Cells determined for use in patch clamp experiments were cultivated without antibiotic.
# Cells were superfused with a bath solution containing (mM): NaCl (137), KCl (4.0), MgCl2 (1.0), CaCl2(1.8), Glucose (10), HEPES (10), pH 7.4 with NaOH. Patch pipettes were made from borosilicate glass tubing using a pipette and filled with pipette solution containing (mM): K-aspartate (130), MgCl2(5.0), EGTA (5.0), K2ATP (4.0), HEPES (10.0), pH 7.2 with KOH. Resistance of the microelectrodes was typically in the range between 2 MΩ and 5 MΩ.
# Membrane currents were recorded using an EPC-10 patch clamp amplifier (HEKA Electronics, Lambrecht, FRG) and PatchMaster software (HEKA). hERG-mediated membrane currents were recorded at typically 28° C., using the whole-cell configuration of the patch-clamp technique. Transfected HEK293 cells were clamped at a holding potential of −60 mV and hERG-mediated inactivating tail currents were elicited using a pulse pattern with fixed amplitudes (activation/inactivation: 40 mV for 2000 ms; recovery: 120 mV for 2 ms; ramp to 40 mV in 2 ms; inactivating tail current: 40 mV for 50 ms) repeated at 15 s intervals. During each inter-pulse interval 4 pulses scaled down by a factor of 0.2 were recorded for a P/n leak subtraction procedure. Rs compensation was employed up to a level that safely allows recording devoid of ringing. The remaining uncompensated Rs was recorded as well as actual temperature and holding current.
# The concentrations of the test item were applied sequentially on each of the different cells investigated. A steady state level of baseline current was measured for at least 5 sweeps prior to the application of the first test article concentration. The test item was dissolved in DMSO to yield a stock solution of 1000-fold the highest final concentration. This stock was diluted further in DMSO to stock solutions of 1000-fold the remaining final concentrations. Final dilutions in extracellular buffer were prepared freshly from these stocks by a 1:1000 dilution step each before starting the experiments.
# Peak current amplitudes were measured 3 ms after the ramp to +40 mV. For baseline and each concentration, the peak currents of the three last sweeps before application of the next concentration were averaged. Residual currents (I/I0) were calculated for each cell as the fraction of actual average peak current and average baseline peak current. Current inhibition was expressed as […]. Current inhibition for all cells was reported as mean ±SD. If possible, from mean current inhibition data the IC50 was estimated based on the Hill equation using a least squares procedure.
# human hepatocytes = experiment: Metabolic stability in human hepatocytes; type: in vitro ADME; conditions: human hepatocyte suspension, 1 μM; predicted hepatic clearance as percentage of hepatic blood flow
# Method: The metabolic degradation of a test compound was assayed in a human hepatocyte suspension. After recovery from cryopreservation, human hepatocytes were diluted in Dulbecco's modified eagle medium (supplemented with 3.5 μg glucagon/500 mL, 2.5 mg insulin/500 mL, 3.75 mg hydrocortisone/500 mL, 5% human serum) to obtain a final cell density of 1.0×10^6 cells/mL or 4.0×10^6 cells/mL, depending on the metabolic turnover rate of the test compound.
# Following a 30 minutes preincubation in a cell culture incubator (37° C., 10% CO2), test compound solution was spiked into the hepatocyte suspension, resulting in a final test compound concentration of 1 μM and a final DMSO concentration of 0.05% (v/v).
# The cell suspension was incubated at 37° C. (cell culture incubator, horizontal shaker) and samples were removed from the incubation after 0, 0.5, 1, 2, 4 and 6 hours. Samples were quenched with acetonitrile (containing internal standard) and pelleted by centrifugation. The supernatant was transferred to a 96-deepwell plate, and prepared for analysis of decline of parent compound by HPLC-MS/MS.
# The percentage of remaining test compound was calculated using the peak area ratio (test compound/internal standard) of each incubation time point relative to the time point 0 peak area ratio. The log-transformed data were plotted versus incubation time, and the absolute value of the slope obtained by linear regression analysis was used to estimate in vitro half-life (T1/2).
# In vitro intrinsic clearance (CLint) was calculated from in vitro T1/2 and scaled to whole liver using a hepatocellularity of 120×10^6 cells/g liver, a human liver per body weight of 25.7 g liver/kg as well as in vitro incubation parameters, applying the following equation: CL_[…]_IN VIVO[mL/min/kg]=(CL_[…][μL/min/10^6 cells]×hepatocellularity[10^6 cells/g liver]×liver factor[g/kg body weight])/1000
# Hepatic in vivo blood clearance (CL) was predicted according to the well-stirred liver model considering an average liver blood flow (QH) of 20.7 mL/min/kg: CL[mL/min/kg]=CL_[…]_IN VIVO[mL/min/kg]×hepatic blood flow[mL/min/kg]/(CL_[…]_IN VIVO[mL/min/kg]+hepatic blood flow[mL/min/kg])
# Results were expressed as percentage of hepatic blood flow: QH[%]=CL[mL/min/kg]/hepatic blood flow[mL/min/kg])
# Chain of hERG channel (Q12809 whole entry): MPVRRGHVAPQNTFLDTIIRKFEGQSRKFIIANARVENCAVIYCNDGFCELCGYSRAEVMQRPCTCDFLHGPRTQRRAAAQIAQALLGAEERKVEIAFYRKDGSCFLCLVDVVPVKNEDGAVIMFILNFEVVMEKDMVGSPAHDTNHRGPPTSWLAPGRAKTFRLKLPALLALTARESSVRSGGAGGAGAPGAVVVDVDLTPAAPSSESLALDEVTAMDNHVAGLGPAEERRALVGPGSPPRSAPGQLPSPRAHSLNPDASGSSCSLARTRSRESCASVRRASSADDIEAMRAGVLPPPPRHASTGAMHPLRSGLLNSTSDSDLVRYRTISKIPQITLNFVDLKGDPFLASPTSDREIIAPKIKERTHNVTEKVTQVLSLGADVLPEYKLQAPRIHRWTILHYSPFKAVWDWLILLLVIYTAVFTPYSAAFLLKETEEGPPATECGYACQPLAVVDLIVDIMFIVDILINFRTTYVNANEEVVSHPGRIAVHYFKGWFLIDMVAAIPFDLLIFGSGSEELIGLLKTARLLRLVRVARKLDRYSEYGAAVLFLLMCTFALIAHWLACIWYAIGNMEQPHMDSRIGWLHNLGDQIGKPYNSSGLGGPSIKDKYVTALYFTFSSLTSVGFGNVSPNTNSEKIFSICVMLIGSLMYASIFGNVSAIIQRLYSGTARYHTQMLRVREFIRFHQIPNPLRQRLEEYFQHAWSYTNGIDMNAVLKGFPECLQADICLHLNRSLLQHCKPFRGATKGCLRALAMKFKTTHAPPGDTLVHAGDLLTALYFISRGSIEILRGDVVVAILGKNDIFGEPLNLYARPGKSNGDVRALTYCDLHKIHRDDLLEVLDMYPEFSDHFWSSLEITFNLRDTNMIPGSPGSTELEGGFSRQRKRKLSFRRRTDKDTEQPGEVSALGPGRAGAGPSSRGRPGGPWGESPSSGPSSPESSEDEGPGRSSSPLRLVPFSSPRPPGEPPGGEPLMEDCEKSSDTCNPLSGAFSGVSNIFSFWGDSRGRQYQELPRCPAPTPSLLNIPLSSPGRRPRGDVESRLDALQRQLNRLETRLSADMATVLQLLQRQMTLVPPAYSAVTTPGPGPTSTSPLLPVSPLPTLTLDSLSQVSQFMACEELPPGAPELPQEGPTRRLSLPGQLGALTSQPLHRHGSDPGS
% Parent of drug-related material [1],Contribution of amide hydrolysis to metabolism (incl. secondary metabolites) ([1]; primary human hepatocytes),Human HepStab (human hepatocytes),"% Inhibition by 50 μM proadifen ([1]; formation of secondary metabolite m443 (of m429), primary human hepatocytes)",SMILES,IC50 (hERG channel)
86%,51%,15.3 % QH,,CC(=O)N1C[C@H](NC(=O)c2nccnc2N2CC(Oc3cc(F)cc(F)c3)C2)C(F)(F)C1 [Example 10a],> 10 µM
82%,49%,11.4 % QH,82^6 % untreated control,CC(=O)N1C[C@H](NC(=O)c2nccnc2N2CC(Oc3cc(F)c(F)c(F)c3)C2)C(F)(F)C1 [Example 11b],> 10 µM
92%,6%,6.4 % QH,,CC(=O)N1CC[C@@H](NC(=O)c2nsnc2N2CC(Oc3cc(F)cc(F)c3)C2)C1 [Example 15a],> 10 µM
